Key:
[1] = biological target: T1, recombinant human ACC1 (rhACC1) (Homo sapiens, UniProt Q13085, DEL44-44); assay: recombinant hACC1 Transcreener assay (direct inhibition of ACC1 activity); assay type: biochemical; conditions: Transcreener ADP detection FP assay, 50 μM ATP, 30 μM acetyl-CoA, 120 min at 25° C.
T1 construct: recombinant baculovirus containing full length human ACC1 cDNA; made in house; host or cells: SF9 insect cells (baculovirus)
Outline: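 Full-length human ACC1 from baculovirus-infected SF9 cells, dephosphorylated with lambda phosphatase. Reaction in 50 mM HEPES pH 7.2 with 30 μM acetyl-CoA, 50 μM ATP, 10 mM KHCO3, 120 min at 25° C; ADP detected by Transcreener fluorescence polarisation.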

[2] = biological target: T2, recombinant human ACC2 (rhACC2) (Homo sapiens, UniProt O00763, V2141I); assay: recombinant hACC2 Transcreener assay (direct inhibition of ACC2 activity); assay type: biochemical; conditions: Transcreener ADP detection FP assay, 50 μM ATP, 30 μM acetyl-CoA, 50 min at 25° C.
T2 construct: a full length Cytomax clone of ACC2 was purchased from Cambridge Bioscience Limited; made in house; host or cells: CHO cells (tetracycline-induced, pcDNA5 FRT TO-TOPO)
T2 sequence (O00763 whole entry V2141I): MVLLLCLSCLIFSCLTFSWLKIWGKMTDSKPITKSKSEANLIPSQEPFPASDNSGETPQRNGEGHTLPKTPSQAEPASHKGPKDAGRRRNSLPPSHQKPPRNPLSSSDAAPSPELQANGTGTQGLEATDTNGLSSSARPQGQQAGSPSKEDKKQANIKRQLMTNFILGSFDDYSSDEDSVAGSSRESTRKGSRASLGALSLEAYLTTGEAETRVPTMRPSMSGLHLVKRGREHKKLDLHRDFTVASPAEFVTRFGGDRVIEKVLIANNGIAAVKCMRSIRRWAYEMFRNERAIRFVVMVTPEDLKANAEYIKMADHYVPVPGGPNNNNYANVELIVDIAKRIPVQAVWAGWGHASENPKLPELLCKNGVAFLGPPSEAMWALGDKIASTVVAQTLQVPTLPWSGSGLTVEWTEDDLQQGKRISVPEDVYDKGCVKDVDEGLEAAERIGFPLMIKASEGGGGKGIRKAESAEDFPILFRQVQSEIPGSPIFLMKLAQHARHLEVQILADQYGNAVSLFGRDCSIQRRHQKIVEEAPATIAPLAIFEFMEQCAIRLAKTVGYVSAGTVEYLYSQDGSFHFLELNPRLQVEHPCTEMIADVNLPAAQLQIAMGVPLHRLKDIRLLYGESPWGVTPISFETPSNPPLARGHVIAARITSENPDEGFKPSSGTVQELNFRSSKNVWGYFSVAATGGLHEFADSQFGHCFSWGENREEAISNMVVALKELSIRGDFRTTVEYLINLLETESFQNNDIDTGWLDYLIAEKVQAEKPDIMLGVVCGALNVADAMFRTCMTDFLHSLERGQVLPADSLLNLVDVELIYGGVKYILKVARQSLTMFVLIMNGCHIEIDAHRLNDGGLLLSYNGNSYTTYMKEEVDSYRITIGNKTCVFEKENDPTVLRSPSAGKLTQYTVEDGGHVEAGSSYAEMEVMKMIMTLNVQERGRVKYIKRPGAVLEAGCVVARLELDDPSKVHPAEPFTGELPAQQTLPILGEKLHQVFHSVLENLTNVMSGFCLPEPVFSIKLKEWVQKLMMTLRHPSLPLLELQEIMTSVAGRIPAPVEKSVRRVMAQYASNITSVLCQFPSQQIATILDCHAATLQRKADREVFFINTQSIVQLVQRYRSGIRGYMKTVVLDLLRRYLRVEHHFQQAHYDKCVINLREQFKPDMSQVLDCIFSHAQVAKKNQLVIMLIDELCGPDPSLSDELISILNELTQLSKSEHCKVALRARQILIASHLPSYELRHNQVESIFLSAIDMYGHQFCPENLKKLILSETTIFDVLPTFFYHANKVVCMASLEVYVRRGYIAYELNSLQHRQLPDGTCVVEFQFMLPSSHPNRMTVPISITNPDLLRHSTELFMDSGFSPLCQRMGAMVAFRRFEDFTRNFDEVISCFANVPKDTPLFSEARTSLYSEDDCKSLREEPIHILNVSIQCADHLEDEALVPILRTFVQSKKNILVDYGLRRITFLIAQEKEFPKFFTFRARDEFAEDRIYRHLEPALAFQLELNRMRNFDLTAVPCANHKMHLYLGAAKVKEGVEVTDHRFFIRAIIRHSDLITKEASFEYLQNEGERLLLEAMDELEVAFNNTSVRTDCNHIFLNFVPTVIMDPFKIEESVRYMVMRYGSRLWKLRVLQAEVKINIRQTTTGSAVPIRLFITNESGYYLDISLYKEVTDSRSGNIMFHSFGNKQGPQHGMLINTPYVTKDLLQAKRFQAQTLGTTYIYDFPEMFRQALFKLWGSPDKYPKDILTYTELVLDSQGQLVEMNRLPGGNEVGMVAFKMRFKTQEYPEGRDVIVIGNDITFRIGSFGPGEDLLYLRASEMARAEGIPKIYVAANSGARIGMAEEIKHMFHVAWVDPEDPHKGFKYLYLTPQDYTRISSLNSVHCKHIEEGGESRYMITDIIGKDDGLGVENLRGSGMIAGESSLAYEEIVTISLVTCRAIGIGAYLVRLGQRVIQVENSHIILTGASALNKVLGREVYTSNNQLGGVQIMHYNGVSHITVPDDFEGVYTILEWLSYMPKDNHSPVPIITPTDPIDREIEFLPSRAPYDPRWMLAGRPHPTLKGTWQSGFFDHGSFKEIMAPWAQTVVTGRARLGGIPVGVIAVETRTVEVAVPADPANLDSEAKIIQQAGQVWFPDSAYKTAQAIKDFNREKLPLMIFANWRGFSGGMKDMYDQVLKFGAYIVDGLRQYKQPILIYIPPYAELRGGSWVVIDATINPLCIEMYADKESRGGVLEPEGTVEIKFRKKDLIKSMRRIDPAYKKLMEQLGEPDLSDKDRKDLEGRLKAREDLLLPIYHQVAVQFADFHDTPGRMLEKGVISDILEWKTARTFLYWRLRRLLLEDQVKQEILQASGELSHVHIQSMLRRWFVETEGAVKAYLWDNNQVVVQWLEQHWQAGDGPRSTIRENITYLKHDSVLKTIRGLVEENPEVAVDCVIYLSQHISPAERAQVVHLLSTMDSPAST
Outline: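 Full-length human ACC2 was expressed in CHO cells and avidin-purified. ADP formation was measured by Transcreener FP in 50 mM HEPES pH 7.2 with 30 μM acetyl-CoA, 50 μM ATP, 8 mM KHCO3 and 5 mM citrate. Reactions ran 50 min at 25 °C with 1% DMSO, then 1 h with stop/detect reagent.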

IC50 [1] [µM]	IC50 [2] [µM]	Structure (SMILES)
3.34	2.13	CC(C)n1ncc2c1C(=O)CC1(CCN(C(=O)c3c[nH]c4ccnn4c3=O)CC1)C2 [Example 11A-35]
0.194	0.0756	CC(C)(C)n1ncc2c1C(=O)CC1(CCN(C(=O)c3cc4ccccn4c3)CC1)C2 [Example 11A-36]
0.0469	0.0136	CC(C)n1ncc2c1C(=O)CC1(CCN(C(=O)c3cc(Cl)c4[nH]ncc4c3)CC1)C2 [Example 2A-16]
13.5	4.91	Cc1ccc(O)c(C(=O)N2CCC3(CC2)CC(=O)c2c(cnn2C(C)C)C3)n1 [Example 11A-49]
0.0695	0.0227	CC(C)(C)n1ncc2c1C(=O)CC1(CCN(C(=O)c3cc(Cl)c4[nH]ncc4c3)CC1)C2 [Example 2A-25]
0.235	0.0563	CC(C)n1ncc2c1C(=O)CC1(CCN(C(=O)c3ccnc(-c4cc[nH]n4)c3)CC1)C2 [Example 11A-18]
2.98	0.719	Cc1cc(C(=O)N2CCC3(CC2)CC(=O)c2c(cnn2Cc2ccccc2)C3)ccc1Cl [Example 1A-4]
2.72	0.68	COCC(C)n1ncc2c1C(=O)CC1(CCN(C(=O)c3ccc(Cl)c(C)c3)CC1)C2 (centres unmarked) [Example 2A-3]
2.03	0.775	Cc1ncc(C(=O)N2CCC3(CC2)CC(=O)c2c(cnn2C(C)C)C3)c(N)n1 [Example 2A-15]
0.0737	0.0329	Cn1c(=O)[nH]c2cc(C(=O)N3CCC4(CC3)CC(=O)c3c(cnn3C(C)(C)C)C4)ccc21 [Example 2A-45]
0.0953	0.028	CC(C)n1ncc2c1C(=O)CC1(CCN(C(=O)c3ccc4cc[nH]c(=O)c4c3)CC1)C2 [Example 2A-13]
0.28	0.0741	CC(C)n1ncc2c1C(=O)CC1(CCN(C(=O)c3cnc4c(cnn4C)c3N)CC1)C2 [Example 2A-58]
0.0374	0.0374	CC(C)(C)n1ncc2c1C(=O)CC1(CCN(C(=O)c3cc4ccncc4[nH]3)CC1)C2 [Example 11A-73]
0.0747	0.0254	CC(C)n1ncc2c1C(=O)CC1(CCN(C(=O)c3cccc(-c4c[nH]cn4)c3)CC1)C2 [Example 11A-3]
0.0312	0.0151	CC(C)(C)n1ncc2c1C(=O)CC1(CCN(C(=O)c3cc(Cl)c4[nH]c(=O)[nH]c4c3)CC1)C2 [Example 2A-56]
6.62	1.5	CC(C)n1nc(C#N)c2c1C(=O)CC1(CCN(C(=O)c3ccc4[nH]ncc4c3)CC1)C2 [Example 2A-76]
0.297	0.0997	CC(C)n1ncc2c1C(=O)CC1(CCN(C(=O)c3cc4cnccc4nc3N)CC1)C2 [Example 2A-38]
1.22	0.481	Cc1cc(C(=O)N2CCC3(CC2)CC(=O)c2c(cnn2CC(C)C)C3)ccc1Cl [Example 2A-5]
1.48	0.658	Cc1cc(C(=O)N2CCC3(CC2)CC(=O)c2c(cnn2C(C)C)C3)c(N)c(C)n1 [Example 11A-2]
4.21	1.28	CC(=O)Nc1cccc(C(=O)N2CCC3(CC2)CC(=O)c2c(cnn2C(C)C)C3)n1 [Example 2A-62]
1.5	0.745	CC(C)(C)n1ncc2c1C(=O)CC1(CCN(C(=O)c3cn4cccc4cn3)CC1)C2 [Example 11A-45]
16	4.89	COCCn1ncc2c1C(=O)CC1(CCN(C(=O)c3ccc(Cl)c(C)c3)CC1)C2 [Example 2A-8]
